From publication PMC9532399, “The lysosomal transporter TAPL has a dual role as peptide translocator and phosphatidylserine floppase” (Nature Communications, 2022)

What was measured:
[1] = test system: TAPL E456A mutant; assay: Peptide transport assay, E456A; assay type: biochemical, mouse; conditions: 9-mer 10 mM (sic), 3 mM ATP
Experimental: (§1) Proteoliposomes for peptide transport assays were prepared according to the protocol of Zhao et al., with some modifications. Briefly, E. coli polar lipid extract dissolved in chloroform was dried under a gentle stream of nitrogen. The thin film of lipids was placed under a desiccator overnight to completely remove residual chloroform and then hydrated in 1X PBS buffer pH 7.4 (137 mM NaCl, 2.7 mM KCl, 8 mM Na2HPO4, and 2 mM KH2PO4) with 10 mM MgCl2 and 5% (v/v) glycerol. After water bath sonication at 22 °C for 5 min (Powersonic 610, KLEENTEK), the lipid solution was extruded using a Mini-Extruder equipped with a polycarbonate membrane filter (200 nm pore) (Avanti Polar Lipids, Inc.) to obtain unilamellar vesicles, which were destabilized with 0.36% (w/v) DM. The DM-purified protein and lipid suspension were mixed in a 1:50 (w/w) ratio. After incubation at 4 °C for 2 h, the mixture was treated with Bio-Beads SM-2 resin (60 and 120 mg, see above) at 4 °C for a total of 18 h to remove detergent. The proteoliposomes were collected by centrifugation at 200,000×g for 1.5 h at 4 °C and resuspended in the buffer described above.
(§2) The peptide transport activity of ΔTMD0 was measured as described previously. Briefly, 50 μL of ΔTMD0-loaded proteoliposomes (~0.6 μg protein) were added into 200 μL reaction buffer containing 1X PBS pH 7.4, 3 mM ATP, and 10 mM MgCl2 in the presence or absence of 10 μM 5-IAF-labeled peptides. To investigate transport activity, the mixture was incubated at 37 °C for 10 min. The reaction was terminated by incubating the mixture for 20 min on ice. Proteoliposomes were collected by centrifugation at 200,000×g for 30 min and then washed twice with 1X PBS. The proteoliposomes were completely disrupted by adding 10% (w/v) SDS solution (final concentration, 2%). The transported peptide was measured using a microplate reader (Gemini XPS) with excitation at 485 nm and emission at 520 nm.

[2] = biological target: T1, mouse TAPL ΔTMD0 (Mus musculus, UniProt Q9JJ59); assay: Peptide transport assay, ΔTMD0 proteoliposomes; assay type: biochemical; conditions: for Transport activity: peptide 10 mM (sic)
T1 construct: thrombin cleavage site (C); eGFP (C); 10XHis (C); made in house; host or cells: Trichoplusia ni High Five (Hi5) insect cells, baculovirus (pVL1393)
T1 sequence (Q9JJ59 143-762): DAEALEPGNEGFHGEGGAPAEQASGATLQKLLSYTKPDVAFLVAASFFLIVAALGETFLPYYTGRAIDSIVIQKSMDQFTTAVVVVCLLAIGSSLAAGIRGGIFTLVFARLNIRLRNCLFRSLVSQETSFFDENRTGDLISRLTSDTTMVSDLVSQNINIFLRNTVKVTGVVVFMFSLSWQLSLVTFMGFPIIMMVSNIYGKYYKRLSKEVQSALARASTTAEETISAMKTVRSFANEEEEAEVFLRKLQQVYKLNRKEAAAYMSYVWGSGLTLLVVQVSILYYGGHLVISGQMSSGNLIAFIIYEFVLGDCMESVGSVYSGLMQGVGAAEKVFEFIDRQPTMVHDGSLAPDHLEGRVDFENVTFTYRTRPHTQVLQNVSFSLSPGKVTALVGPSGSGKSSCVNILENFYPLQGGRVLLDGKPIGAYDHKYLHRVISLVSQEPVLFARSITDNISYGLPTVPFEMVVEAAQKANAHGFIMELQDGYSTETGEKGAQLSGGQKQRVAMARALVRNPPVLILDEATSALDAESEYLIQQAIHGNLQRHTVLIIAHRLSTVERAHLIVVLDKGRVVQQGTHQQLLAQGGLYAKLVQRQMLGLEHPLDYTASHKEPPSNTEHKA
Experimental: as §1, §2

[3] = test system: TAPL N301A mutant; assay: Peptide transport assay, N301A; assay type: biochemical, mouse; conditions: 9-mer 10 mM (sic), 3 mM ATP
Experimental: as §1, §2

[4] = test system: TAPL Q298A mutant; assay: Peptide transport assay, Q298A; assay type: biochemical, mouse; conditions: 9-mer 10 mM (sic), 3 mM ATP
Experimental: as §1, §2

RRYQNSTC^5-IAFL [9-mer, 5-IAF-labeled peptide of 9 residues (RRYQNSTC^5-IAFL)]
Transport activity ([1]; replicate I): 48.9147% | Transport activity ([1]; replicate II): 53.6761% | Transport activity ([1]; replicate III): 40.3825% | Transport activity ([1]; wild-type = 100%, mean n=3): 47.6578% | peptide transport ([2]; ATP-dependent, 5-IAF-labeled peptides): preferentially transported | Transport activity ([2]; + 3 mM ATP, 9-mer + ATP set at 100%, 37 °C 10 min, mean n=3): 100% | Transport activity ([2]; + 3 mM ATP, replicate I): 101.702% | Transport activity ([2]; + 3 mM ATP, replicate II): 98.4079% | Transport activity ([2]; + 3 mM ATP, replicate III): 99.8902% | Transport activity ([2]; no ATP, 9-mer + ATP set at 100%, mean n=3): 5.331% | Transport activity ([2]; no ATP, replicate I): 5.213% | Transport activity ([2]; no ATP, replicate II): 5.414% | Transport activity ([2]; no ATP, replicate III): 5.365% | Transport activity ([3]; replicate I): 112.671% | Transport activity ([3]; replicate II): 153.066% | Transport activity ([3]; replicate III): 131.453% | Transport activity ([3]; wild-type = 100%, mean n=3): 132.396% | Transport activity ([4]; replicate I): 88.0035% | Transport activity ([4]; replicate II): 84.2917% | Transport activity ([4]; replicate III): 85.5798% | Transport activity ([4]; wild-type = 100%, mean n=3): 85.9583%
